Source: ChEMBL document CHEMBL1909046, “DrugMatrix in vitro pharmacology data”

What was measured:
[1] = target: T1, Alpha-2C adrenergic receptor (Homo sapiens, UniProt P18825); assay: DRUGMATRIX: Adrenergic Alpha-2C radioligand binding (ligand: [3H] MK-912); format: cell membranes, Sf9, Membrane; conditions: sf9
T1 sequence (P18825 whole entry): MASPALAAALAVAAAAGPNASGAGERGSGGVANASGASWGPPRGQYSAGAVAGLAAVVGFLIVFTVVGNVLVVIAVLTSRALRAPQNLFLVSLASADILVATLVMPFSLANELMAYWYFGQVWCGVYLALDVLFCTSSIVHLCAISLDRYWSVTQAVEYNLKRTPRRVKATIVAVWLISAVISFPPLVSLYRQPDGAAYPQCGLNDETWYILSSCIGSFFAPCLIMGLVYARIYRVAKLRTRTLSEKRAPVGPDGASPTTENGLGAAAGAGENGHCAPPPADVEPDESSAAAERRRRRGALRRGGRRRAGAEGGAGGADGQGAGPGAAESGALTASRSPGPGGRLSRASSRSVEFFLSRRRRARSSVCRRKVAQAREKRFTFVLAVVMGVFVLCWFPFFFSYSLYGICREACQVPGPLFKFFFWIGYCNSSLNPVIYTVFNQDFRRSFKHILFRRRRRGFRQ

[2] = DRUGMATRIX: Atrial Natriuretic Factor (ANF) radioligand binding (ligand: [125I] ANF (rat)); format: cell membranes, Cavia porcellus, Dunkin-Hartley, Adrenal gland, Membrane; conditions: Not Active = under 50% inhibition at 10 µM
[3] = target: Sigma non-opioid intracellular receptor 1 (Homo sapiens, UniProt Q99720); assay: DRUGMATRIX: Sigma1 radioligand binding (ligand: [3H] Haloperidol); format: cell membranes, Jurkat, Membrane; conditions: jurkat; Not Active = under 50% inhibition at 10 µM
Chain of Sigma non-opioid intracellular receptor 1 (Q99720 whole entry): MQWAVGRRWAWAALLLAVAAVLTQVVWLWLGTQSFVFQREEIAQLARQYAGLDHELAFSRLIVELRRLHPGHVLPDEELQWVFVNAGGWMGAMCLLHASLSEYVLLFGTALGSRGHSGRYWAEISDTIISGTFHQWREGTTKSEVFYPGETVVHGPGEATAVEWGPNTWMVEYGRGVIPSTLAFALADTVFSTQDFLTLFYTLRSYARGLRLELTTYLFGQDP

Substance-K receptor = target: T2, Substance-K receptor (Homo sapiens, UniProt P21452); format: cell membranes, CHO, Membrane; conditions: cho; note: in other assays of this panel Not Active means under 50% inhibition at 10 µM
T2 sequence (P21452 whole entry): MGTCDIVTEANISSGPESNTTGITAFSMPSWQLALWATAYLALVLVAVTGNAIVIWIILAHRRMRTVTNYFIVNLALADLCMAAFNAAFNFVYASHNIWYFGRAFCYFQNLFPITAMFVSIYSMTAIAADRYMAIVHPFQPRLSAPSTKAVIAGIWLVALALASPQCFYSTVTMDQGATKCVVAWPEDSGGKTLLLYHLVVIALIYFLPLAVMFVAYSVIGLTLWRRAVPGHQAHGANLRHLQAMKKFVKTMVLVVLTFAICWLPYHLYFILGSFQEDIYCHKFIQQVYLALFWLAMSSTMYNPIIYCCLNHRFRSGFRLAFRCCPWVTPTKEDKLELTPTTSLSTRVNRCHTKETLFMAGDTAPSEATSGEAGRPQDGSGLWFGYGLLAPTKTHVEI

[4] = target: C-C chemokine receptor type 2 (Homo sapiens, UniProt P41597); format: cell membranes, CHO-K1, Membrane; conditions: cho-k1; note: in other assays of this panel Not Active means under 50% inhibition at 10 µM
Chain of C-C chemokine receptor type 2 (P41597 whole entry): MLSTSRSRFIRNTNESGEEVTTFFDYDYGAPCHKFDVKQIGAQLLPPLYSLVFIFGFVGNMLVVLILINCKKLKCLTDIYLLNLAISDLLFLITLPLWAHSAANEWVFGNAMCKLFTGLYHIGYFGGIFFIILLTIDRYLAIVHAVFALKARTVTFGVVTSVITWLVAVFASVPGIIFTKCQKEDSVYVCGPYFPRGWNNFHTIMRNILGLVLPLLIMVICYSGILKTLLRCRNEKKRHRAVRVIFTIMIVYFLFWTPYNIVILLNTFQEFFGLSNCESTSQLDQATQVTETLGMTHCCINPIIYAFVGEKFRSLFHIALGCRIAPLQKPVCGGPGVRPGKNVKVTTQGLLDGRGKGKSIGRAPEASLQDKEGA

[5] = target: T3, C-C chemokine receptor type 4 (Homo sapiens, UniProt P51679); format: cell membranes, Membrane; conditions: chem-1; note: in other assays of this panel Not Active means under 50% inhibition at 10 µM
T3 sequence (P51679 whole entry): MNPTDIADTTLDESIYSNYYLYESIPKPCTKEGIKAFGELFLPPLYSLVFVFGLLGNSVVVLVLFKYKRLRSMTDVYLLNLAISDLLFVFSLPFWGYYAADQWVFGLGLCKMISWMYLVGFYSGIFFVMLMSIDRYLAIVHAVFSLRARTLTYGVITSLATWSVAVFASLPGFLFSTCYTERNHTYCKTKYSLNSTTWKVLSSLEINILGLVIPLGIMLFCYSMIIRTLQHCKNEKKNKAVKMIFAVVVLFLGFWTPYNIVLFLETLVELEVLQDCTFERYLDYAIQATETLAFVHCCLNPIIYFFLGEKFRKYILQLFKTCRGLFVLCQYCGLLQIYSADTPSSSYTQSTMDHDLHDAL

[6] = target: C-C chemokine receptor type 5 (Homo sapiens, UniProt P51681); format: cell membranes, Membrane; conditions: hek293; note: in other assays of this panel Not Active means under 50% inhibition at 10 µM
Chain of C-C chemokine receptor type 5 (P51681 whole entry): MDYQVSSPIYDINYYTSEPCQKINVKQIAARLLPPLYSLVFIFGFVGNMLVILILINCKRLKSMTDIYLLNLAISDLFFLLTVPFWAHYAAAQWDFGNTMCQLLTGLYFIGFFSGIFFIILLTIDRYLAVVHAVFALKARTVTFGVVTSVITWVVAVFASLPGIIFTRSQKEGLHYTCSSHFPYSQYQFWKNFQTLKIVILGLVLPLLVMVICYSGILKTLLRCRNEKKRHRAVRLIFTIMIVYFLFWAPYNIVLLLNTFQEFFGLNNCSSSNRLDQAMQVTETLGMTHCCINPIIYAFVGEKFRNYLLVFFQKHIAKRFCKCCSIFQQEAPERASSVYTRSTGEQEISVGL

[7] = target: T4, C-X-C chemokine receptor type 2 (Homo sapiens, UniProt P25025); format: cell membranes, Membrane; conditions: cho-k1; note: in other assays of this panel Not Active means under 50% inhibition at 10 µM
T4 sequence (P25025 whole entry): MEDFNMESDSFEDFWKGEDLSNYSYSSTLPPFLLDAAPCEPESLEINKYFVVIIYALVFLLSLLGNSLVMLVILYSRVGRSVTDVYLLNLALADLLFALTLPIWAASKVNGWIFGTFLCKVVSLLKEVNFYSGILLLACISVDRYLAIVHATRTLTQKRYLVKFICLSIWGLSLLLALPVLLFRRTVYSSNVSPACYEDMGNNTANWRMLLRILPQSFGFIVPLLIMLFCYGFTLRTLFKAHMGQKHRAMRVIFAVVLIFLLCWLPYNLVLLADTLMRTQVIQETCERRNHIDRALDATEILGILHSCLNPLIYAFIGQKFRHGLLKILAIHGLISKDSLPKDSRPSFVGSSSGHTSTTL

D(1A) dopamine receptor = D(1A) dopamine receptor (Homo sapiens, UniProt P21728); assay: DRUGMATRIX: Dopamine D1 radioligand binding (ligand: [3H] SCH-23390); format: cell membranes, CHO, Membrane; conditions: cho; Not Active = under 50% inhibition at 10 µM
Chain of D(1A) dopamine receptor (P21728 whole entry): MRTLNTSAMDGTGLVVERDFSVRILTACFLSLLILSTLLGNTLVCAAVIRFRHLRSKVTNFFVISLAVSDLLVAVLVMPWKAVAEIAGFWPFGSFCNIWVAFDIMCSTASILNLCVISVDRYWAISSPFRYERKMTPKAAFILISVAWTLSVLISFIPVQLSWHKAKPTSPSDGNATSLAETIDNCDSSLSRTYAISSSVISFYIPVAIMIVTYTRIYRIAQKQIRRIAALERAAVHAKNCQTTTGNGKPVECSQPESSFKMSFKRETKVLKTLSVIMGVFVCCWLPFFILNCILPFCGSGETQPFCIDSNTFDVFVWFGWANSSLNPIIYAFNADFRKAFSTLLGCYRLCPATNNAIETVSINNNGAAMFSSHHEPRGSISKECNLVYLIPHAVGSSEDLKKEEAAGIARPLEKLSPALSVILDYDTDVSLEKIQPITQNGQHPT

[8] = DRUGMATRIX: Glutamate, Kainate radioligand binding (ligand: [3H] Kainic acid); format: cell membranes, Rattus norvegicus, Wistar, Brain, Membrane; conditions: Not Active = under 50% inhibition at 10 µM
[9] = DRUGMATRIX: Leukotriene, BLT (LTB4) radioligand binding (ligand: [3H]LTB4); format: cell membranes, Membrane; conditions: u-937; Not Active = under 50% inhibition at 10 µM
[10] = target: Delta-type opioid receptor (Homo sapiens, UniProt P41143); format: cell membranes, HEK293, Membrane; conditions: hek293; note: in other assays of this panel Not Active means under 50% inhibition at 10 µM
Chain of Delta-type opioid receptor (P41143 whole entry): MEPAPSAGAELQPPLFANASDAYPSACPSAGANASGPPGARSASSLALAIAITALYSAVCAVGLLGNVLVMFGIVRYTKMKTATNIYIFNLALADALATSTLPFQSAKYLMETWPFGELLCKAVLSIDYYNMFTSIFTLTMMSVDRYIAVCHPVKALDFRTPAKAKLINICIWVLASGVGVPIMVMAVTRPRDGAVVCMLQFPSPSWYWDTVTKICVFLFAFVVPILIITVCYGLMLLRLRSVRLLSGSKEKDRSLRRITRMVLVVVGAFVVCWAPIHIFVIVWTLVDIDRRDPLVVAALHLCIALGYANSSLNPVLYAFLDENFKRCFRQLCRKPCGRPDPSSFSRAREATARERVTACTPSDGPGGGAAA

[11] = target: Kappa-type opioid receptor (Homo sapiens, UniProt P41145); assay: DRUGMATRIX: Opiate kappa (OP2, KOP) radioligand binding (ligand: [3H] Diprenorphine); format: cell membranes, HEK293, Membrane; conditions: hek293; Not Active = under 50% inhibition at 10 µM
Chain of Kappa-type opioid receptor (P41145 whole entry): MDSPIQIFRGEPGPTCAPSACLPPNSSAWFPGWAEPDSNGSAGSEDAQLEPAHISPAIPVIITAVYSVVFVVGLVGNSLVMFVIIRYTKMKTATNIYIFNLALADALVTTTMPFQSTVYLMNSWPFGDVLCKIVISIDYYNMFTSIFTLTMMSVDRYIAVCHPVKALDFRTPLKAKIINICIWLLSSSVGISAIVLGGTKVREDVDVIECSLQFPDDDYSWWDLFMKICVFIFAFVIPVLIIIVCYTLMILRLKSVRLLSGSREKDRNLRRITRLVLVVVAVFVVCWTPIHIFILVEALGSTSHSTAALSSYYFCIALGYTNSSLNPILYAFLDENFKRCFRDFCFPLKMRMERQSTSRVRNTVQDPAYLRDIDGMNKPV

[12] = target: cGMP-specific 3',5'-cyclic phosphodiesterase (Homo sapiens, UniProt O76074); assay: DRUGMATRIX: Phosphodiesterase PDE5 enzyme inhibition (substrate: [3H]cGMP + cGMP); format: tissue-based, Platelet; conditions: platelet; Not Active = under 50% inhibition at 10 µM
[13] = target: Protein kinase C alpha type (Homo sapiens, UniProt P17252); format: cell-based; conditions: sf9
[14] = target: Mitogen-activated protein kinase 14 (Homo sapiens, UniProt Q16539); set-up: species or system Escherichia coli
Chain of Mitogen-activated protein kinase 14 (Q16539 whole entry): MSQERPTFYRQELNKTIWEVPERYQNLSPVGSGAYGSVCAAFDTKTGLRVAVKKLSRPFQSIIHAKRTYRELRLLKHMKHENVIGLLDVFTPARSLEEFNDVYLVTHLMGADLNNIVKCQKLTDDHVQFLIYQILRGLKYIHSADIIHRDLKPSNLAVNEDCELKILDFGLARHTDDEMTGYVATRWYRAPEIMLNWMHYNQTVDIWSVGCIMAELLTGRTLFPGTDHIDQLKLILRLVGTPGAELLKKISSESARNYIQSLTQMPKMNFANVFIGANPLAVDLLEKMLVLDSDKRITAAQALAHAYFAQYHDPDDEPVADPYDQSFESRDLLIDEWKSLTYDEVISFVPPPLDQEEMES

COC(=O)c1ccc(O)cc1 [METHYLPARABEN]
Not Active: IC50 [1] | IC50 [2] | Ki [2] | IC50 [3] | IC50 (Substance-K receptor) | IC50 [4] | IC50 [5] | IC50 [6] | IC50 [7] | IC50 (D(1A) dopamine receptor) | IC50 [8] | Ki [8] | IC50 [9] | Ki [9] | IC50 [10] | IC50 [11] | IC50 [12] | IC50 [13] | IC50 [14]

C[C@](N)(Cc1ccc(O)cc1)C(=O)O [METYROSINE]
Not Active: IC50 [1] | IC50 [2] | Ki [2] | IC50 [3] | IC50 (Substance-K receptor) | IC50 [4] | IC50 [5] | IC50 [6] | IC50 [7] | IC50 (D(1A) dopamine receptor) | IC50 [8] | Ki [8] | IC50 [9] | Ki [9] | IC50 [10] | IC50 [11] | IC50 [12] | IC50 [13] | IC50 [14]

Clc1ccc(C(c2ccccc2Cl)C(Cl)Cl)cc1 (stereo unspecified) [MITOTANE]
Not Active: IC50 [1] | IC50 [2] | Ki [2] | IC50 [3] | IC50 (Substance-K receptor) | IC50 [4] | IC50 [5] | IC50 [6] | IC50 [7] | IC50 (D(1A) dopamine receptor) | IC50 [8] | Ki [8] | IC50 [9] | Ki [9] | IC50 [10] | IC50 [11] | IC50 [12] | IC50 [13] | IC50 [14]

O=C1c2c(O)ccc(O)c2C(=O)c2c(NCCNCCO)ccc(NCCNCCO)c21 [MITOXANTRONE]
Not Active: IC50 [1] | IC50 [2] | Ki [2] | IC50 [3] | IC50 (Substance-K receptor) | IC50 [4] | IC50 [5] | IC50 [6] | IC50 [7] | IC50 (D(1A) dopamine receptor) | IC50 [8] | Ki [8] | IC50 [9] | Ki [9] | IC50 [10] | IC50 [11] | IC50 [12] | IC50 [13] | IC50 [14]
